US20170304388A1, “NEW INDICATION OF CARDIOVASCULAR DRUGS FOR PREPARATION OF CANCER INHIBITION PHARMACEUTICAL COMPOSITION” (LAUNX BIOMEDICAL CO., LTD., priority 2014, published 2017)
Read-outs that look alike come from different tables or passages of the source.

How the values were obtained:
Format in all cases: cell-based
NIH-OVCAR-3 = experiment: Cell viability analysis (WST-1), NIH-OVCAR-3; settings: Homo sapiens, OVCAR-3, 72 h, Table 4, repeated experiments, drug 10 μM, read-out: survival rate (viability) of cancer cells, NIH-OVCAR-3
Procedure, shortened: (§1)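 Wells receive 3000 cells, and the medium is swapped for drug at 10 μM. Seventy-two hours later, WST-1 reagent diluted 9:1 with medium is added, plates sit at 37° C for 30–90 minutes, and OD450 nm yields survival rate.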

BxPC-3 = experiment: Cell viability analysis (WST-1), BxPC-3; settings: Homo sapiens, BXPC-3, 72 h, Table 4, repeated experiments, drug 10 μM, read-out: survival rate (viability) of cancer cells, BxPC-3
Procedure, shortened: as §1

[1] = test system: LoVo (Colorectal Adenocarcinoma); experiment: Cell viability analysis (WST-1), LoVo; settings: Homo sapiens, LoVo, 72 h
[2] = test system: A549 (Lung Adenocarcinoma); experiment: Cell viability analysis (WST-1), A549; settings: Homo sapiens, A549, 72 h
[3] = test system: MCF7 (Mammary Gland, Adenocarcinoma); experiment: Cell viability analysis (WST-1), MCF7; settings: Homo sapiens, MCF7, 72 h
cancer cell lines = experiment: Growth inhibitory effects on the panel of cancer cell lines; settings: count of cancer cell lines inhibited; drug 10 μM, 72 hours

CCC(C)(C)C(=O)O[C@H]1C[C@@H](C)C=C2C=C[C@H](C)[C@H](CC[C@@H]3C[C@@H](O)CC(=O)O3)[C@H]21 [Simvastatin (Zocor), Simvastatin]
viability at 10 µM (NIH-OVCAR-3): 98.4% | viability at 10 µM (BxPC-3): 81.8% | viability at 10 µM ([1]; Table 3, drug 10 μM, WST-1, OD450 nm, read-out: survival rate (viability) of cancer cells, LoVo): 99.9% | viability at 10 µM ([1]; Table 4, repeated experiments, drug 10 μM, WST-1, read-out: survival rate (viability) of cancer cells, LoVo): 89.3% | viability at 10 µM ([2]; Table 3, drug 10 μM, WST-1, OD450 nm, read-out: survival rate (viability) of cancer cells, A549): 126% | viability at 10 µM ([2]; Table 4, repeated experiments, drug 10 μM, WST-1, read-out: survival rate (viability) of cancer cells, A549): 110% | viability at 10 µM ([3]; Table 3, drug 10 μM, WST-1, OD450 nm, read-out: survival rate (viability) of cancer cells, MCF7): 81.5% | viability at 10 µM ([3]; Table 4, repeated experiments, drug 10 μM, WST-1, read-out: survival rate (viability) of cancer cells, MCF-7): 88.8% | Numbers of inhibitory effect on cancer cell line (cancer cell lines): 0
